Laboratory results published in ChEMBL document CHEMBL3217457, “Carbazolepyrrolo[2,1-c][1,4]benzodiazepine conjugates: design, synthesis, and biological evaluation” (Medchemcomm, 2011).

Key:
[1] = system: PC-3; test: Growth inhibition of human PC3 cells; format: functional
[2] = system: A549; test: Growth inhibition of human A549 cells; format: functional
[3] = system: Calf thymus DNA; test: Binding affinity to calf thymus DNA assessed as change in melting temperature at compound to DNA ratio of 1:5 after 18 hrs by thermal denaturation analysis; format: nucleic-acid assay; details: Bos taurus
[4] = system: COLO 205; test: Growth inhibition of human COLO205 cells; format: functional
[5] = system: SiHa; test: Growth inhibition of human SiHa cells; format: functional
[6] = system: A2780; test: Growth inhibition of human A2780 cells; format: functional
[7] = system: MCF7; test: Growth inhibition of human MCF7 cells; format: functional
[8] = system: KB; test: Growth inhibition of human KB cells; format: functional
[9] = system: HOP-62; test: Growth inhibition of human HOP62 cells; format: functional
[10] = Growth inhibition of human Gurav cells; format: functional
[11] = system: MCF7; test: Cell cycle arrest in human MCF7 cells assessed as accumulation at G1 phase at 4 uM after 24 hrs by propidium iodide staining based flow cytometry (reference value: 57.98%); format: functional
[12] = system: MCF7; test: Cell cycle arrest in human MCF7 cells assessed as accumulation at G0/G1 phase at 4 uM after 24 hrs by propidium iodide staining based flow cytometry (reference value: 60.75%); format: functional
[13] = system: MCF7; test: Cell cycle arrest in human MCF7 cells assessed as accumulation at G2/M phase at 4 uM after 24 hrs by propidium iodide staining based flow cytometry (reference value: 24.95%); format: functional
[14] = system: ZR-75-1; test: Growth inhibition of human ZR-75-1 cells; format: functional
[15] = system: MCF7; test: Cell cycle arrest in human MCF7 cells assessed as accumulation at S phase at 4 uM after 24 hrs by propidium iodide staining based flow cytometry (reference value: 14.30%); format: functional
[16] = system: MCF7; test: Cell cycle arrest in human MCF7 cells assessed as accumulation at G0 phase at 4 uM after 24 hrs by propidium iodide staining based flow cytometry (reference value: 2.77%); format: functional

GI50 [1] [nM]	GI50 [2] [nM]	ΔTm [3] [°C]	GI50 [4] [nM]	GI50 [6] [nM]	GI50 [7] [nM]	GI50 [8] [nM]	SMILES	GI50 [5] [nM]	GI50 [9] [nM]	GI50 [10] [nM]	Activity [11] [%]	Activity [12] [%]	Activity [13] [%]	GI50 [14] [nM]	Activity [15] [%]	Activity [16] [%]
150	160	5.9	180	140	140	170	COc1ccc(-c2ccc3c(c2)c2cc(-c4ccc(OC)cc4)ccc2n3CCCCCOc2cc3c(cc2OC)C(=O)N2CCC[C@H]2C=N3)cc1	170	120	–	–	–	–	–	–	–
160	180	4.8	170	150	130	180	COc1ccc(-c2ccc3c(c2)c2cc(-c4ccc(OC)cc4)ccc2n3CCCOc2cc3c(cc2OC)C(=O)N2CCC[C@H]2C=N3)cc1	170	110	–	–	–	–	–	–	–
110	120	8.5	140	110	150	140	COc1cc2c(cc1OCCCN1CCN(CCCCn3c4ccccc4c4ccccc43)CC1)N=C[C@@H]1CCCN1C2=O	130	100	130	–	–	–	150	–	–
160	190	4.3	190	160	150	190	COc1ccc(-c2ccc3c(c2)c2cc(-c4ccc(OC)cc4)ccc2n3CCCCOc2cc3c(cc2OC)C(=O)N2CCC[C@H]2C=N3)cc1	170	140	–	62.6	67	21.88	–	11.12	4.4
–	–	–	–	–	–	–	COc1ccc(-c2ccc3[nH]c4ccc(-c5ccc(OC)cc5)cc4c3c2)cc1	–	–	–	62.24	66.63	21.53	–	11.84	4.39

SMILES	GI50 [1] [nM]	GI50 [2] [nM]	ΔTm [3] [°C]	GI50 [4] [nM]	GI50 [6] [nM]	GI50 [7] [nM]	GI50 [8] [nM]	GI50 [5] [nM]	GI50 [9] [nM]	GI50 [10] [nM]	Activity [11] [%]	Activity [12] [%]	Activity [13] [%]	GI50 [14] [nM]	Activity [15] [%]	Activity [16] [%]
COc1cccc2c1C(=O)c1c(O)c3c(c(O)c1C2=O)C[C@@](O)(C(=O)CO)C[C@@H]3O[C@H]1C[C@H](N)[C@H](O)[C@H](C)O1 [DOXORUBICIN]	1830	–	–	140	160	170	170	170	140	160	–	–	–	–	–	–
COc1cc2c(cc1O)N=C[C@@H]1CCCN1C2=O	200	160	–	110	140	170	170	170	150	170	63.79	67.74	20.07	2340	12.2	3.95
